{"source": "paper PMC5118533", "about": "“Phase II Trial of Angiotensin-(1-7) for the Treatment of Patients with Metastatic Sarcoma” (Sarcoma, 2016)", "key": {"[1]": {"experiment": "Phase II trial: adverse events (CTCAE v3.0)", "format": "in vivo, human", "description": "Ang-(1-7) was administered by subcutaneous injection once daily continuously. One cycle was defined as a 21-day period. Toxicities were assessed weekly during the first cycle and on the first day of each subsequent cycle. In the absence of unacceptable treatment-related toxicity, patients continued treatment until disease progression.\nTwo dose cohorts were planned. In the first cohort, twenty patients were treated at a dose of 20 mg daily which is similar to the weight-based dose of 400 mcg/kg identified as the MTD in the phase I study. Unlike the phase I study, this study utilized continuous daily dosing rather than five days every three weeks. A planned interim safety evaluation was performed after the enrollment of 10 patients in the first cohort. […] Patients in this cohort would have received Ang-(1-7) at a dose of 10 mg daily if excessive toxicities had been observed in the 20 mg cohort. Safety events that would trigger dose deescalation included 3 strokes in any cohort or other evidence of excessive toxicity.\nTumor measurements were performed using RECIST version 1.1 prior to initiation of treatment and then every two cycles until disease progression or unacceptable toxicity. Toxicities were graded using the Common Terminology Criteria for Adverse Events, version 3.0. […]"}, "[2]": {"settings": "phase I, ref [16], cited from earlier work", "excerpt": "A phase I trial using subcutaneous administration of Ang-(1-7) for the treatment of patients with advanced solid tumors was previously reported. This study evaluated the maximum tolerated dose (MTD), toxicities, and pharmacokinetics of Ang-(1-7) when given subcutaneously once daily for five consecutive days on a 21-day cycle. This study identified 400 mcg/kg as the MTD for this schedule."}, "[3]": {"experiment": "Plasma Ang-(1-7) concentration, radioimmunoassay", "format": "in vivo", "settings": "human, sc, median, RIA, P < 0.05 vs baseline", "description": "In the phase I trial, statistically significant changes in PlGF concentrations were identified 4 hours after the first Ang-(1-7) injection. To prospectively evaluate this biomarker, PlGF levels as well as VEGF, Ang-(1-7), Ang II, and Ang I were measured prior to the first dose, 4 hours after the first dose, and after 21 days of treatment in the phase II trial. Blood samples were immediately placed on ice and processed within 30 minutes of collection. For the angiotensin peptides, blood was taken in an EDTA containing tube with a cocktail of inhibitors to prevent in vitro generation or degradation of peptides, as previously described. Plasma samples were stored at −80°C. Concentrations of Ang-(1-7) (developed by laboratory), Ang II (Alpco, Windham, NH), and Ang I (Peninsula, San Carlos, CA) were measured by the Hypertension Core Facility of Wake Forest University using three established radioimmunoassay methods. Aliquots of plasma from the same time points were assayed by Aushon Biosystems (Billerica, MA) using Searchlight ELISA technology to quantify circulating vascular endothelial growth factor (VEGF) and placental growth factor (PlGF). […]\nThe study was designed with 87% power to detect a response rate by RECIST criteria of 10% in the study population. […] Levels of biomarker expression over time were evaluated using nonparametric, Wilcoxon signed rank tests. […]"}}, "note": "Read-outs that look alike come from different tables or passages of the source.", "data": [{"smiles": "CC[C@H](C)[C@H](NC(=O)[C@H](Cc1ccc(O)cc1)NC(=O)[C@@H](NC(=O)[C@H](CCCNC(=N)N)NC(=O)[C@@H](N)CC(=O)O)C(C)C)C(=O)N[C@@H](Cc1c[nH]cn1)C(=O)N1CCC[C@H]1C(=O)O", "note": "[Ang-(1-7), Angiotensin-(1-7)]", "values": [{"measurement": "deaths on study or within 30 days of completing treatment", "setting": "[1]; 20 patients, all attributed to progressive cancer, felt unrelated to treatment", "result": "Three"}, {"measurement": "pregnancy outcome", "setting": "[1]; in vivo", "result": "delivered a healthy child"}, {"measurement": "serious adverse event at least possibly related", "setting": "[2]; 400 mcg/kg dose level", "result": "deep vein thrombosis"}, {"measurement": "half-life at the MTD", "setting": "[2]; 400 mcg/kg s.c., considerable intra- and interpatient variability", "result": 36, "unit": "min"}, {"measurement": "serious adverse event at least possibly related", "setting": "[2]; 700 mcg/kg dose level (first event named)", "result": "stroke"}, {"measurement": "serious adverse event at least possibly related", "setting": "[2]; 700 mcg/kg dose level (second event named)", "result": "cranial neuropathy"}, {"measurement": "maximum tolerated dose (MTD)", "setting": "[2]; s.c. once daily for five consecutive days on a 21-day cycle, advanced solid tumors", "result": 0.4, "unit": "mg/kg"}, {"measurement": "level at 4 h", "setting": "[3]; 4 hours after first dose, 20 mg s.c.", "result": 0.0611, "unit": "ng/mL"}, {"measurement": "level at 528 h", "setting": "[3]; day 22, 20 mg daily s.c.", "result": 0.0412, "unit": "ng/mL"}]}]}
